Assay results: ChEMBL document CHEMBL1129020, “Synthesis and protein kinase C inhibitory activities of indane analogs of balanol” (Bioorg Med Chem Lett, 1996)

How the values were obtained:
[1] = target: Protein kinase C alpha type (Homo sapiens, UniProt P17252); assay: Inhibition of protein kinase C alpha
[2] = target: T1, Protein kinase C eta type (Homo sapiens, UniProt P24723); assay: Inhibition of protein kinase C eta
[3] = target: T2, Protein kinase C epsilon type (Homo sapiens, UniProt Q02156); assay: Inhibition of protein kinase C epsilon
T2 sequence (Q02156 whole entry): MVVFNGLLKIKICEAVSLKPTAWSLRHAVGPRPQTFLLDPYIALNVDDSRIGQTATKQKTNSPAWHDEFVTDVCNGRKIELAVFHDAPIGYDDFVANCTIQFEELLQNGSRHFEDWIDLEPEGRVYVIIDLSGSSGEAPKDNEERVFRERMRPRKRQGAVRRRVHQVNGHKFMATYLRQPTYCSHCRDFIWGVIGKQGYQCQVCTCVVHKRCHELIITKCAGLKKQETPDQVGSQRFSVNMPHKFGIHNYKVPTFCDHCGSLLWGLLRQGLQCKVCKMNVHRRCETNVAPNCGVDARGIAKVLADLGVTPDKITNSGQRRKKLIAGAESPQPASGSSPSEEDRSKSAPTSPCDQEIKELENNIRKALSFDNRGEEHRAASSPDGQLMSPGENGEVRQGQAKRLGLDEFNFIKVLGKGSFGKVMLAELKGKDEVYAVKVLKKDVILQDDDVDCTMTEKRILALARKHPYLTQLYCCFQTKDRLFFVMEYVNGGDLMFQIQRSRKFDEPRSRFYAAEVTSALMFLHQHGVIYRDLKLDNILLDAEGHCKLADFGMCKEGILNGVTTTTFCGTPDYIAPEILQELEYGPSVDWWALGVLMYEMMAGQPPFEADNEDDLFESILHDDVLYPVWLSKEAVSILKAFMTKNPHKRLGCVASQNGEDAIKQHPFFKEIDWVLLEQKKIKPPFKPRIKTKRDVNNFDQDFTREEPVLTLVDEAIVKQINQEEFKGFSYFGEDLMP

[4] = target: cAMP-dependent protein kinase (PKA) (Homo sapiens, UniProt P22694+P17612+P22612); assay: Inhibition of cAMP-dependent protein kinase (PKA); type: protein assay
[5] = target: T3, Protein kinase C beta type (Homo sapiens, UniProt P05771); assay: Inhibition of protein kinase C beta II
[6] = target: T4, Protein kinase C delta type (Homo sapiens, UniProt Q05655); assay: Inhibition of protein kinase C delta
[7] = target: T5, Protein kinase C gamma type (Homo sapiens, UniProt P05129); assay: Inhibition of protein kinase C gamma
[8] = target: T3, Protein kinase C beta type; assay: Inhibition of protein kinase C beta 1
[9] = target: T3, Protein kinase C beta type; assay: Inhibition of Protein kinase C beta 2
[10] = target: T5, Protein kinase C gamma type; assay: Inhibition of Protein kinase C gamma
[11] = target: T1, Protein kinase C eta type; assay: Inhibition of Protein kinase C eta
[12] = target: T3, Protein kinase C beta type; assay: Inhibition of Protein kinase C beta 1
[13] = target: T4, Protein kinase C delta type; assay: Inhibition of Protein kinase C delta

T1 sequence (P24723 whole entry): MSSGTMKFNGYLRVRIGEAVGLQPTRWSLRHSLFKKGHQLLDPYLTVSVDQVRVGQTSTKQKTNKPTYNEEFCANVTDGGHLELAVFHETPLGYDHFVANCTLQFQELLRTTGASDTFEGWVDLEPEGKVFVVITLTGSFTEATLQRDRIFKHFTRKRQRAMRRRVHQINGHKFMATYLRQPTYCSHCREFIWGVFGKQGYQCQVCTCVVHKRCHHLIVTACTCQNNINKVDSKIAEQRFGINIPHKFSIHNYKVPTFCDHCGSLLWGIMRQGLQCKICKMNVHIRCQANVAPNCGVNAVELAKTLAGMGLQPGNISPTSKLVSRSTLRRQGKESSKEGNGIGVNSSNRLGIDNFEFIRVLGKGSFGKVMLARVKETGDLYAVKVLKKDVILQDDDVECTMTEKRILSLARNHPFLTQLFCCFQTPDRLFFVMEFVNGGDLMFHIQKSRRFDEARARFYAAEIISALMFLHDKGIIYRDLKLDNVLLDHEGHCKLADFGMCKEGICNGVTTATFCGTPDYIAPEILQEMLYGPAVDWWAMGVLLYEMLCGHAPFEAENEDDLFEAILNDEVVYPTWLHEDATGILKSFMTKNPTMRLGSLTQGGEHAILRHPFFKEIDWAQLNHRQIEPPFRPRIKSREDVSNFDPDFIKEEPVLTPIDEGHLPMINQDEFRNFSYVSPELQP
T3 sequence (P05771 whole entry): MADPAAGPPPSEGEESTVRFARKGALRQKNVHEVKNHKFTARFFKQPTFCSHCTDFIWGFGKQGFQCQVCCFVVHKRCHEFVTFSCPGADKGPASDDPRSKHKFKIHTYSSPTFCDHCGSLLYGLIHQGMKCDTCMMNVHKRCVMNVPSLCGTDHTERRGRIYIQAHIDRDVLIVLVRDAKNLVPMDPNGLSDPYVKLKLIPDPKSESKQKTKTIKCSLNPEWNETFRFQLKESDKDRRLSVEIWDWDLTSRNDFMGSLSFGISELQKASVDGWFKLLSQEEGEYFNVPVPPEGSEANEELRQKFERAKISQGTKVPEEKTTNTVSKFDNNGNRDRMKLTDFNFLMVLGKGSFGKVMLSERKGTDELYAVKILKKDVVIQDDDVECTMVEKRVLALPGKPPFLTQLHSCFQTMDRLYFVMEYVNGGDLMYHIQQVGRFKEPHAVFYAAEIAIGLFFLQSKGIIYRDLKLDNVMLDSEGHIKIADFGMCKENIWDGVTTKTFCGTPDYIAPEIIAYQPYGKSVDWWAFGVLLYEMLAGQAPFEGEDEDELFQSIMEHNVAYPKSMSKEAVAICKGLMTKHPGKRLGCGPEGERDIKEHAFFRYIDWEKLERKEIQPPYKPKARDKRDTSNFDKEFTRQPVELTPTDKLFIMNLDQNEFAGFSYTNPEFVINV
T4 sequence (Q05655 whole entry): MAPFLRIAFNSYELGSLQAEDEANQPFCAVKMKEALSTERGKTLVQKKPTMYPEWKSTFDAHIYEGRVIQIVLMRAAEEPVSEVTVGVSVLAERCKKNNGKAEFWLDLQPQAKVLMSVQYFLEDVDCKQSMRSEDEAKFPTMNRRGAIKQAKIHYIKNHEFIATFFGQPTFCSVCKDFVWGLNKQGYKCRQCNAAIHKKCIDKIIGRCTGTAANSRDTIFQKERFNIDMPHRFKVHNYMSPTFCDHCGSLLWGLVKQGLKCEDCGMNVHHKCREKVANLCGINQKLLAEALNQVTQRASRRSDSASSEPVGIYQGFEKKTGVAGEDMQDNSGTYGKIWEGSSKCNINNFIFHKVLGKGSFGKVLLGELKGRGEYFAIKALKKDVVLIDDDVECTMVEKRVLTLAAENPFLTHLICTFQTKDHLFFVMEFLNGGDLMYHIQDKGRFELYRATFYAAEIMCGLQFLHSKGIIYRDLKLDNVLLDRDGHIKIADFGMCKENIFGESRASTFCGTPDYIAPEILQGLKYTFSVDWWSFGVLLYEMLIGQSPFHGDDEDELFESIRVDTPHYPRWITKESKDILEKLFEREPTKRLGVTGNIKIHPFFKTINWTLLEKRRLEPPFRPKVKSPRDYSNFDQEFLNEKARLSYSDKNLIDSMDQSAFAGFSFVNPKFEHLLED

| SMILES | IC50 [1] [nM] | IC50 [2] [nM] | IC50 [3] [nM] | IC50 [4] [µM] | IC50 [5] [nM] | IC50 [6] [nM] | IC50 [7] [nM] | IC50 [8] [nM] | IC50 [9] [nM] | IC50 [10] [nM] | IC50 [11] [nM] | IC50 [12] [nM] | IC50 [13] [nM] |
| --- | --- | --- | --- | --- | --- | --- | --- | --- | --- | --- | --- | --- | --- |
| O=C(N[C@@H]1CNCC1OC(=O)c1cc(O)c(C(=O)c2c(O)cccc2C(=O)O)c(O)c1)c1ccc(O)cc1 (stereo not given in full) | 22 | 4 | 10 | 0.07 | 33 | 5 | 12 | 10 | – | – | – | – | – |
| O=C(N[C@@H]1c2ccccc2C[C@@H]1OC(=O)c1cc(O)c(C(=O)c2c(O)cccc2C(=O)O)c(O)c1)c1ccc(O)cc1 | 290 | < 50 | 1900 | 50 | 50 | 50 | 50 | 60 | – | – | – | – | – |
| O=C(N[C@@H]1c2ccccc2C[C@H]1OC(=O)c1cc(O)c(C(=O)c2c(O)cccc2C(=O)O)c(O)c1)c1ccc(O)cc1 | > 50000 | 35000 | > 50000 | – | 39000 | 32000 | 32000 | > 50000 | – | – | – | – | – |
| O=C(N[C@@H]1Cc2ccccc2C1OC(=O)c1cc(O)c(C(=O)c2c(O)cccc2C(=O)O)c(O)c1)c1ccc(O)cc1 (mixture of isomers) | 70 | < 25 | 480 | – | < 25 | < 25 | < 30 | < 29 | – | – | – | – | – |

The next lines start with the values.

| IC50 [1] [nM] | IC50 [2] [nM] | IC50 [3] [nM] | IC50 [4] [µM] | IC50 [5] [nM] | IC50 [6] [nM] | IC50 [7] [nM] | IC50 [8] [nM] | IC50 [9] [nM] | IC50 [10] [nM] | IC50 [11] [nM] | IC50 [12] [nM] | IC50 [13] [nM] | SMILES |
| --- | --- | --- | --- | --- | --- | --- | --- | --- | --- | --- | --- | --- | --- |
| 30 | – | – | – | – | – | – | – | 10 | 10 | 3 | 10 | 4 | O=C(N[C@@H]1CNCCCC1OC(=O)c1cc(O)c(C(=O)c2c(O)cccc2C(=O)O)c(O)c1)c1ccc(O)cc1 (stereo not given in full) |
| 3000 | – | – | – | – | – | – | – | 880 | 400 | 260 | 500 | 420 | O=C(N[C@H]1CNCCCC1OC(=O)c1cc(O)c(C(=O)c2c(O)cccc2C(=O)O)c(O)c1)c1ccc(O)cc1 (stereo not given in full) |
| 40 | 0.6 | 50 | – | 50 | 0.9 | 10 | 40 | – | – | – | – | – | O=C(N[C@@H]1CCCC1OC(=O)c1cc(O)c(C(=O)c2c(O)cccc2C(=O)O)c(O)c1)c1ccc(O)cc1 (stereo not given in full) |
| 160 | < 10 | 310 | 50 | 170 | 30 | 160 | 200 | – | – | – | – | – | O=C(N[C@@H]1c2ccccc2CC1OC(=O)c1cc(O)c(C(=O)c2c(O)cccc2C(=O)O)c(O)c1)c1ccc(O)cc1 (mixture of isomers) |
| > 50000 | – | 25000 | > 100 | 37000 | 21000 | 34000 | 37000 | – | – | – | – | – | O=C(N[C@H]1c2ccccc2CC1OC(=O)c1cc(O)c(C(=O)c2c(O)cccc2C(=O)O)c(O)c1)c1ccc(O)cc1 (mixture of isomers) |
| 370 | – | – | – | – | – | – | – | 260 | 140 | < 100 | 80 | 50 | O=C(NC1CNCCCC1OC(=O)c1cc(O)c(C(=O)c2c(O)cccc2C(=O)O)c(O)c1)c1ccc(O)cc1 (racemic) |
